Inconclusive results and toxic doses are left out. Cut-off read from the data, not from the text of the source: active = T/C of 150% or more; inactive = T/C below 125%.
System: L1210 leukemia ip in BDF1 mice, survival T/C
Assay: NCI In Vivo Anticancer Drug Screen. Data for tumor model L1210 Leukemia (intraperitoneal) in B6D2F1 (BDF1) mice
Details: endpoint: mean survival time, higher = longer survival
How it was run: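 Value reflects the ratio of survival in compound-treated mice to survival in vehicle-treated controls, with both groups carrying the same transplanted tumor.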

[1] = dose: 100.0 mg/kg/injection, schedule: Q01DX009 (ip), vehicle: saline with Tween-80
[2] = dose: 100.0 mg/kg/injection, schedule: Q04DX003 (ip), vehicle: saline with Tween-80
[3] = dose: 200.0 mg/kg/injection, schedule: Q01DX009 (ip), vehicle: saline with Tween-80
[4] = dose: 200.0 mg/kg/injection, schedule: Q04DX003 (ip), vehicle: saline with Tween-80
[5] = dose: 400.0 mg/kg/injection, schedule: Q01DX009 (ip), vehicle: saline with Tween-80
[6] = dose: 400.0 mg/kg/injection, schedule: Q04DX003 (ip), vehicle: saline with Tween-80
[7] = dose: 100.0 mg/kg/injection, schedule: Q01DX001 (ip), vehicle: saline
[8] = dose: 200.0 mg/kg/injection, schedule: Q01DX001 (ip), vehicle: saline
[9] = dose: 400.0 mg/kg/injection, schedule: Q01DX001 (ip), vehicle: saline
[10] = dose: 100.0 mg/kg/injection, schedule: Q04DX002 (ip), vehicle: Klucel (hydroxypropylcellulose) (HPC)
[11] = dose: 200.0 mg/kg/injection, schedule: Q04DX002 (ip), vehicle: Klucel (hydroxypropylcellulose) (HPC)
[12] = dose: 400.0 mg/kg/injection, schedule: Q04DX002 (ip), vehicle: Klucel (hydroxypropylcellulose) (HPC)
[13] = dose: 100.0 mg/kg/injection, schedule: Q01DX009 (ip), vehicle: Klucel (hydroxypropylcellulose) (HPC)
[14] = dose: 50.0 mg/kg/injection, schedule: Q01DX009 (ip), vehicle: saline with Tween-80

Measured: T/C

OC(C=C(C(F)(F)F)C(F)(F)F)c1cccc(Cl)c1 (stereo unspecified)
inactive: dose: 100.0 mg/kg/injection, schedule: Q04DX003 (sc), vehicle: olive oil, sesame oil, peanut oil 97 % of control | dose: 200.0 mg/kg/injection, schedule: Q04DX003 (sc), vehicle: olive oil, sesame oil, peanut oil 95 % of control | dose: 400.0 mg/kg/injection, schedule: Q04DX003 (sc), vehicle: olive oil, sesame oil, peanut oil 91 % of control

S=P(NCc1cccc(CNP(=S)(N2CC2)N2CC2)c1)(N1CC1)N1CC1
inactive: dose: 75.0 mg/kg/injection, schedule: Q01DX001 (ip), vehicle: carboxymethylcellulose (CMC) 98 % of control | dose: 150.0 mg/kg/injection, schedule: Q01DX001 (ip), vehicle: carboxymethylcellulose (CMC) 98 % of control | dose: 300.0 mg/kg/injection, schedule: Q01DX001 (ip), vehicle: carboxymethylcellulose (CMC) 93 % of control

NC(CSS(=O)(=O)O)=NCCc1ccccc1
inactive: dose: 3.13 mg/kg/injection, schedule: Q04DX002 (ip), vehicle: Klucel (hydroxypropylcellulose) (HPC) 103 % of control | dose: 6.25 mg/kg/injection, schedule: Q04DX002 (ip), vehicle: Klucel (hydroxypropylcellulose) (HPC) 100 % of control | dose: 12.5 mg/kg/injection, schedule: Q04DX002 (ip), vehicle: Klucel (hydroxypropylcellulose) (HPC) 100 % of control

CCOC(=O)CCN(Cc1ccccc1)CC(C)C(=O)OC (stereo unspecified)
inactive: [1] 102 % of control | [2] 104 % of control | [3] 97 % of control | [4] 91 % of control | [5] 95 % of control | [6] 96 % of control

C1CCC2(CC1)NN2
inactive: dose: 50.0 mg/kg/injection, schedule: Q01DX001 (ip), vehicle: water 101 % of control | dose: 100.0 mg/kg/injection, schedule: Q01DX001 (ip), vehicle: water 104 % of control | dose: 200.0 mg/kg/injection, schedule: Q01DX001 (ip), vehicle: water 98 % of control | dose: 400.0 mg/kg/injection, schedule: Q01DX001 (ip), vehicle: water 103 % of control

NC(N)=N/N=C/c1ccc(O)cc1
inactive: dose: 15.0 mg/kg/injection, schedule: Q01DX Z (ip), vehicle: saline 104 % of control | dose: 30.0 mg/kg/injection, schedule: Q01DX Z (ip), vehicle: saline 88 % of control | dose: 30.0 mg/kg/injection, schedule: Q01DX Z (oral), vehicle: saline 94 % of control | dose: 60.0 mg/kg/injection, schedule: Q01DX Z (ip), vehicle: saline 95 % of control | dose: 60.0 mg/kg/injection, schedule: Q01DX Z (oral), vehicle: saline 94 % of control | dose: 120.0 mg/kg/injection, schedule: Q01DX Z (oral), vehicle: saline 90 % of control | dose: 240.0 mg/kg/injection, schedule: Q01DX Z (oral), vehicle: saline 100 % of control

O=C(N/N=C/c1ccccc1Cl)c1cccc2ccccc12
inactive: [7] 92 % of control | [8] 101 % of control | [9] 103 % of control

Cc1cccc2c(N3CCOCC3)c3c(nc12)CCCCC3
inactive: [2] 96 % of control | [4] 95 % of control | [6] 101 % of control

CCOC(=O)COc1cc(N)c(Cl)cc1Cl
inactive: dose: 100.0 mg/kg/injection, schedule: Q04DX002 (ip), vehicle: gum acacia 95 % of control | dose: 200.0 mg/kg/injection, schedule: Q04DX002 (ip), vehicle: gum acacia 95 % of control | dose: 400.0 mg/kg/injection, schedule: Q04DX002 (ip), vehicle: gum acacia 92 % of control

c1ccc(CNCc2ccc(CNCc3ccccc3)cc2)cc1
inactive: [2] 93 % of control | [4] 97 % of control | [6] 98 % of control

NC(=O)C(N)CCO (stereo unspecified)
inactive: dose: 75.0 mg/kg/injection, schedule: Q04DX003 (ip), vehicle: saline 104 % of control | dose: 150.0 mg/kg/injection, schedule: Q04DX003 (ip), vehicle: saline 104 % of control | dose: 300.0 mg/kg/injection, schedule: Q04DX003 (ip), vehicle: saline 100 % of control

C#CC(C)(C)OCC(O)CCl (stereo unspecified)
inactive: dose: 100.0 mg/kg/injection, schedule: Q01DX009 (ip), vehicle: saline 96 % of control | dose: 100.0 mg/kg/injection, schedule: Q04DX003 (ip), vehicle: saline sonified 114 % of control | dose: 200.0 mg/kg/injection, schedule: Q01DX009 (ip), vehicle: saline 89 % of control | dose: 200.0 mg/kg/injection, schedule: Q04DX003 (ip), vehicle: saline sonified 109 % of control | dose: 400.0 mg/kg/injection, schedule: Q04DX003 (ip), vehicle: saline sonified 109 % of control

C/C=C1\CN(C(=O)C(NC(=O)C(N)C(O)C(O)COC(N)=O)C2OC(n3cc(CO)c(=O)[nH]c3=O)C(O)C2O)C1C(=O)O (stereo unspecified) (tested in a mixture with another compound)
inactive: [7] 95 % of control | [8] 106 % of control | [9] 105 % of control

Cc1ccc([N+](=O)[O-])cc1NC(=O)OCC1CCCO1 (stereo unspecified)
inactive: [10] 87 % of control | [11] 87 % of control | [12] 97 % of control

COC(=O)C(Br)C(=O)OC
inactive: dose: 12.5 mg/kg/injection, schedule: Q04DX002 (ip), vehicle: saline with Tween-80 97 % of control | dose: 25.0 mg/kg/injection, schedule: Q04DX002 (ip), vehicle: saline with Tween-80 97 % of control

COc1ccc(Cl)cc1NC(=O)Nc1ccc(F)c([N+](=O)[O-])c1
inactive: [13] 106 % of control | dose: 200.0 mg/kg/injection, schedule: Q01DX009 (ip), vehicle: Klucel (hydroxypropylcellulose) (HPC) 104 % of control | dose: 400.0 mg/kg/injection, schedule: Q01DX009 (ip), vehicle: Klucel (hydroxypropylcellulose) (HPC) 102 % of control

O=C(c1ccccc1)N(c1ccccc1)c1cccc(Cl)n1
inactive: [14] 93 % of control | [1] 93 % of control | [3] 90 % of control

COc1ccc([I+]c2ccc(OC)cc2)cc1
inactive: dose: 0.63 mg/kg/injection, schedule: Q01DX009 (ip), vehicle: water 100 % of control | dose: 1.25 mg/kg/injection, schedule: Q01DX009 (ip), vehicle: water 101 % of control | dose: 2.5 mg/kg/injection, schedule: Q01DX009 (ip), vehicle: water 105 % of control | dose: 2.5 mg/kg/injection, schedule: Q04DX003 (ip), vehicle: water 103 % of control | dose: 3.12 mg/kg/injection, schedule: Q01DX009 (ip), vehicle: saline 103 % of control | dose: 5.0 mg/kg/injection, schedule: Q04DX003 (ip), vehicle: water 108 % of control | dose: 6.25 mg/kg/injection, schedule: Q01DX009 (ip), vehicle: saline 107 % of control | dose: 10.0 mg/kg/injection, schedule: Q04DX003 (ip), vehicle: water 101 % of control | dose: 12.5 mg/kg/injection, schedule: Q01DX009 (ip), vehicle: saline 91 % of control | dose: 50.0 mg/kg/injection, schedule: Q04DX003 (ip), vehicle: acetone 103 % of control | [7] 111 % of control | dose: 100.0 mg/kg/injection, schedule: Q04DX003 (ip), vehicle: acetone 100 % of control | [8] 109 % of control

O=C(C(=Nc1ccccc1)c1ccccc1)c1ccccc1
inactive: [2] 96 % of control | [4] 94 % of control

C1CC[N-]CC1.Oc1ccccc1C=NCCN=Cc1ccccc1O.[CH3-].[Rh+2]
inactive: [14] 109 % of control | [1] 115 % of control | [2] 106 % of control | [3] 91 % of control | [4] 117 % of control

COc1cc(NC(C)=O)c2ncccc2c1
inactive: [1] 99 % of control | [3] 106 % of control

[Tl][CH]1C=CC=C1
inactive: dose: 100.0 mg/kg/injection, schedule: Q01DX001 (ip), vehicle: acetone 93 % of control

OCCCNc1nc2cc(Cl)ccc2c2ccc(Cl)cc12
inactive: [13] 90 % of control | dose: 100.0 mg/kg/injection, schedule: Q04DX003 (ip), vehicle: Klucel (hydroxypropylcellulose) (HPC) 88 % of control | dose: 200.0 mg/kg/injection, schedule: Q04DX003 (ip), vehicle: Klucel (hydroxypropylcellulose) (HPC) 97 % of control | dose: 400.0 mg/kg/injection, schedule: Q04DX003 (ip), vehicle: Klucel (hydroxypropylcellulose) (HPC) 103 % of control

CCOC(=O)c1c[nH]c(=O)c([N+](=O)[O-])c1O
inactive: [1] 98 % of control | [2] 96 % of control | [3] 109 % of control | [4] 98 % of control | [5] 92 % of control | [6] 90 % of control

CCC(Cl)(c1ccccc1)C(O)C(=O)OC(C)C (stereo unspecified)
inactive: [10] 106 % of control | [11] 103 % of control | [12] 106 % of control

Source: PubChem BioAssay AID248 (DTP/NCI, 2004)
